Each structure is given as a SMILES string.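 48-hour exposure; five concentrations; linearly interpolated endpoints. GI50 = concentration required for 50% inhibition of growth.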 The source made the active and inactive calls. Cut-off read from the data, not from the text of the source: active = GI50 up to about 1.1 µM and inactive = higher. Some results are limits rather than exact numbers.

Common to all, as to test: NCI-60 cell line screen, 48 h
The test system of experiment [1] is EKVX.
The subject of experiment [2] is SK-MEL-5.
Experiment [3] relates to RPMI-8226.
Experiment [4] deals with SF-539.
Experiment [5] has as its system HOP-62.
Experiment [6] concerns DLD-1.
The test system of experiment [7] is TK-10.
In experiment [8] the test system is A549.
Experiment [9] deals with UO-31.
The subject of experiment [10] is HL-60.
Experiment [11] deals with UACC-62.
Experiment [12] has as its system SF-295.
The subject of experiment [13] is T47D.
In experiment [14] the test system is HCC 2998.
Experiment [15] has as its system DU-145.
For experiment [16], the system named is MDA-N.
For experiment [17], the system named is OVCAR-4.
Experiment [18] relates to BT-549.
Experiment [19] deals with SNB-78.

With `Cc1nc2ccccc2c(=O)n1/N=C(\N=N\c1ccc(Cl)cc1)c1cccc(-c2ccco2)c1`, the GI50 in experiment [1] was 51.8 µM (inactive); in experiment [2], 18.9 µM (inactive); in experiment [3], 19.1 µM (inactive); in [4], 28.6 µM (inactive); in experiment [5] it was 22.5 µM (inactive); in experiment [6] it was 27.9 µM (inactive). For the same compound, the GI50 was 51.5 µM (inactive) in [7]; 40.6 µM (inactive) in experiment [8]; 14.1 µM (inactive) in experiment [9]; 25.1 µM (inactive) in [10]; 22.4 µM (inactive) in [11]; 48.5 µM (inactive) in experiment [12].
Regarding `N=C(N)NCCCC(NCc1c2ccccc2nc2ccccc12)C(=O)O` (stereo not drawn), the GI50 in experiment [1] was 33.1 µM (inactive); in experiment [2], > 41.8 µM (inactive); in experiment [13], 36.2 µM (inactive); in experiment [14], 33.5 µM (inactive); in experiment [3], 10.4 µM (inactive); in experiment [4], 33 µM (inactive). Further, the GI50 in experiment [5] is 37.1 µM (inactive); in [6], 17.3 µM (inactive); in experiment [15], > 100 µM (inactive); in experiment [16], 37.2 µM (inactive); in experiment [7] it was 49.5 µM (inactive); in experiment [8], 37.2 µM (inactive). In addition, the GI50 in experiment [9] was 23.6 µM (inactive); in experiment [17] it was 29.2 µM (inactive); in [10], 11 µM (inactive); in [18], 30.9 µM (inactive); in experiment [11] it was 31.3 µM (inactive); in [12], 48 µM (inactive).
`Nc1nc(Cl)cc(NCC2(CO)CCC(Cc3ccccc3)C2)n1` (stereo not drawn): the GI50 in experiment [1] is 8.71 µM (inactive); in experiment [2], 0.671 µM (active); in experiment [13], 6.5 µM (inactive); in experiment [14], 25.8 µM (inactive); in [3] it was 12 µM (inactive); in [4], 29 µM (inactive). In addition, the GI50 was 32.7 µM (inactive) in experiment [5]; 27.8 µM (inactive) in experiment [15]; 23.1 µM (inactive) in experiment [16]; 26 µM (inactive) in experiment [7]; 16.3 µM (inactive) in experiment [8]; 38.3 µM (inactive) in [9]. In addition, the GI50 in experiment [17] was 13.6 µM (inactive); in experiment [10], 2.69 µM (inactive); in experiment [18], 16.2 µM (inactive); in experiment [11] it was 11.9 µM (inactive); in experiment [12] it was 10.1 µM (inactive).
In the case of `COc1cc(/C=C2\[C@H]3c4c(c(OC)c(C)c(OC)c4OC)C[C@@H](C(=O)N2Cc2ccccc2)N3C(=O)OC(C)C)c(OC)c(C)c1OC`, the GI50 in [1] was 52.5 µM (inactive); in experiment [2], 48.4 µM (inactive); in experiment [14], 29.6 µM (inactive); in experiment [3], 27.2 µM (inactive); in experiment [4], > 100 µM (inactive); in [5], > 100 µM (inactive). Also, the GI50 in experiment [6] was > 100 µM (inactive); in experiment [7] it was 79.3 µM (inactive); in [8], > 100 µM (inactive); in [9], 66.7 µM (inactive); in experiment [17], 69.3 µM (inactive); in experiment [10] it was 19.8 µM (inactive). Further, the GI50 in experiment [11] was 92.9 µM (inactive); in experiment [12], > 100 µM (inactive).
Turning to `COc1ccc2nc3c4c(nccc4c2c1)-c1ncccc1C3=O`, the GI50 in experiment [1] was 0.132 µM (active); in experiment [2], 0.0282 µM (active); in [13] it was 0.703 µM (active); in [14], 0.209 µM (active); in experiment [3] it was 0.0652 µM (active); in experiment [4], 0.0769 µM (active). Further, the GI50 in experiment [5] is 0.0193 µM (active); in experiment [15], 0.00927 µM (active); in experiment [16] it was 0.0631 µM (active); in [7], 0.18 µM (active); in experiment [8], 0.113 µM (active); in experiment [9] it was 0.135 µM (active). Also, the GI50 is 0.439 µM (active) in experiment [17]; 0.0217 µM (active) in [10]; 0.109 µM (active) in experiment [18]; 0.048 µM (active) in experiment [11]; 0.08 µM (active) in [12].
Take `Cn1c(=S)c2nc(SCc3cccnc3)[nH]c2n(C)c1=O`: the GI50 in experiment [1], in experiment [2], in experiment [13], in [14], in experiment [3] and in experiment [4] was > 100 µM (inactive) each time. Also, the GI50 in [5], in experiment [15], in [16], in experiment [7], in experiment [8] and in experiment [9] was > 100 µM (inactive) each time. Besides, the GI50 in experiment [17] is > 100 µM (inactive); in experiment [10], > 100 µM (inactive); in experiment [18] it was > 100 µM (inactive); in experiment [11], > 100 µM (inactive); in experiment [12], 97.7 µM (inactive).
For the compound `CCOc1ccc(NC(=S)N/C=C(/C(C)=O)C(=O)Nc2ccccc2C)cc1`, the GI50 in experiment [1] is > 100 µM (inactive); in experiment [2] it was > 100 µM (inactive); in experiment [13] it was > 100 µM (inactive); in experiment [14] it was > 100 µM (inactive); in experiment [3], 7.35 µM (inactive); in experiment [4], > 100 µM (inactive). Moreover, the GI50 in experiment [5], in experiment [15], in [16], in experiment [7], in experiment [8] and in experiment [9] was > 100 µM (inactive) in each case. Moreover, the GI50 in [17] was 59.8 µM (inactive); in [10], > 100 µM (inactive); in experiment [18], > 100 µM (inactive); in [11] it was > 100 µM (inactive); in experiment [12], > 100 µM (inactive).
Turning to `O=C1NN=C2C=C(c3ccc(Cl)cc3)CC(c3cccc(Br)c3)C12` (stereo not drawn), the GI50 in experiment [1] was 47.5 µM (inactive); in experiment [2] it was > 100 µM (inactive); in experiment [13] it was 22.1 µM (inactive); in [14], 38.7 µM (inactive); in [3], 26.1 µM (inactive); in [4] it was > 100 µM (inactive). For the same compound, the GI50 in experiment [5] is > 100 µM (inactive); in experiment [15] it was 41.8 µM (inactive); in experiment [16], > 100 µM (inactive); in experiment [7], 54.5 µM (inactive); in experiment [8], 37.4 µM (inactive); in [9] it was 42.8 µM (inactive). Further, the GI50 in experiment [17] was > 100 µM (inactive); in experiment [10], 42 µM (inactive); in experiment [18], > 100 µM (inactive); in [11], 87.3 µM (inactive); in [12] it was 91.4 µM (inactive).
For `c1ccc2c(c1)CC1c3[nH]c4ccccc4c3CCN21` (stereo not drawn), the GI50 in [1], in [2], in [13], in experiment [14], in [3] and in experiment [4] was > 10 µM (inactive) each time. For the same compound, the GI50 in [5], in experiment [15], in [16], in experiment [7], in experiment [8] and in experiment [9] was > 10 µM (inactive) in each case. Moreover, the GI50 in [17], in experiment [10], in [18], in experiment [11] and in [12] was > 10 µM (inactive) throughout.
In the case of `NC(=O)C12C3C4C1C1C2C3C41C(N)=O` (stereo not drawn), the GI50 in [1], in [2], in [14], in [3], in experiment [4] and in experiment [5] was > 100 µM (inactive) in each case. Besides, the GI50 in [6], in experiment [7], in [8], in experiment [9], in experiment [17] and in experiment [10] was > 100 µM (inactive) throughout. For the same compound, the GI50 in experiment [11] and in experiment [12] was > 100 µM (inactive) each time.
As for `NC1C[C@H](n2cc(/C=C/Br)c(=O)[nH]c2=O)C[C@@H]1CO` (stereo partly drawn), the GI50 in experiment [1], in experiment [14], in experiment [3], in experiment [4], in experiment [5] and in experiment [6] was > 100 µM (inactive) throughout. In addition, the GI50 in experiment [7], in [9], in [17], in experiment [10], in [11] and in experiment [12] was > 100 µM (inactive) in each case.
On to `COC(=O)C(CC(=O)Nc1ccc(Cl)c(Cl)c1)C(=O)C(=O)Nc1ccc(Cl)c(Cl)c1` (stereo not drawn), for which the GI50 in experiment [1], in [2], in [14], in experiment [3], in experiment [4] and in experiment [5] was > 100 µM (inactive) in each case. Moreover, the GI50 in [7], in experiment [8], in [9], in experiment [17], in [10] and in experiment [11] was > 100 µM (inactive) in each case. Further, the GI50 in experiment [19] and in experiment [12] was > 100 µM (inactive) throughout.
In the case of `CC[C@@H]1CC[C@@H]2[C@H](CC[C@]3(C)[C@@H](O)CC[C@@H]23)[C@H]1CO`, the GI50 in experiment [1] is > 100 µM (inactive); in [2] it was 31.3 µM (inactive); in experiment [13] it was 70.5 µM (inactive); in experiment [14], > 100 µM (inactive); in experiment [3], 67 µM (inactive); in experiment [4], > 100 µM (inactive). The GI50 in [5], in experiment [15], in experiment [16], in experiment [7], in [8] and in experiment [9] was > 100 µM (inactive) in each case. The GI50 was 71 µM (inactive) in experiment [17]; 23.3 µM (inactive) in [10]; > 100 µM (inactive) in experiment [18]; 79.8 µM (inactive) in experiment [11]; 77.3 µM (inactive) in experiment [12].

The values above are taken from ChEMBL document CHEMBL1201862, “PubChem BioAssay data set” (2004).
